Laboratory results as given in ChEMBL document CHEMBL3885861, “Open TG-GATES”.

Species: Rattus norvegicus
Experiment: Open TG-GATES - Regimen: Single
Type: toxicity, organism-based, Sprague-Dawley
Parameters: regimen Single, gender Male, age 6 weeks
Conditions: in vivo, po, 20 mg/kg, route gavage, dose level Low; for APTT / Bas / Eos / Fbg / Hb / Ht / Lym / MCH / MCHC / MCV / Mono / Neu / PT / Plat / RBC / Ret / WBC: tissue Blood; for KIDNEY_L / KIDNEY_R / KIDNEY_TOTAL: tissue Kidney; for LIVER: tissue Liver; for A/G / ALP / ALT / AST / BUN / CRE / Ca / Cl / DBIL / GLC / IP / K / LDH / Na / PL / RALB / TBIL / TC / TG / TP / gamma-GTP: tissue Plasma

Structure (SMILES): CCc1oc2ccccc2c1C(=O)c1cc(Br)c(O)c(Br)c1 [BENZBROMARONE]
- TERMINAL_BW (3 h): 212.8 g
- APTT (3 h): 16.3 s
- Bas (3 h): 0%
- Eos (3 h): 0.6%
- Fbg (3 h): 237.6 mg/dL
- Hb (3 h): 13.8 g/dL
- Ht (3 h): 41%
- Lym (3 h): 81.2%
- MCH (3 h): 21.7 pg
- MCHC (3 h): 33.6%
- MCV (3 h): 64.6 fL
- Mono (3 h): 8.4%
- Neu (3 h): 9.8%
- PT (3 h): 11.8 s
- Plat (3 h): 106.4 x10_4/uL
- RBC (3 h): 634.6 x10_4/ul
- Ret (3 h): 7.7%
- WBC (3 h): 91.2 x10_2/uL
- KIDNEY_L (3 h): 0.9 g
- KIDNEY_R (3 h): 1 g
- KIDNEY_TOTAL (3 h): 1.9 g
- LIVER (3 h): 10.1 g
- A/G (3 h): 2.3
- ALP (3 h): 902 IU/L
- ALT (3 h): 33.6 IU/L
- AST (3 h): 62 IU/L
- BUN (3 h): 11.2 mg/dL
- CRE (3 h): 0.6 mg/dL
- Ca (3 h): 10.7 mg/dL
- Cl (3 h): 103.4 meq/L
- DBIL (3 h): 0.034 mg/dL
- GLC (3 h): 195.4 mg/dL
- IP (3 h): 9.5 mg/dL
- K (3 h): 4.8 meq/L
- LDH (3 h): 81.6 IU/L
- Na (3 h): 139 meq/L
- PL (3 h): 147 mg/dL
- RALB (3 h): 3.9 g/dL
- TBIL (3 h): 0.3 mg/dL
- TC (3 h): 79.6 mg/dL
- TG (3 h): 81.2 mg/dL
- TP (3 h): 5.6 g/dL
- gamma-GTP (3 h): 1 IU/L
- TERMINAL_BW (6 h): 212.2 g
- APTT (6 h): 16.1 s
- Bas (6 h): 0%
- Eos (6 h): 1.2%
- Fbg (6 h): 228 mg/dL
- Hb (6 h): 13.8 g/dL
- Ht (6 h): 41.2%
- Lym (6 h): 79.4%
- MCH (6 h): 21.6 pg
- MCHC (6 h): 33.5%
- MCV (6 h): 64.5 fL
- Mono (6 h): 7%
- Neu (6 h): 12.6%
- PT (6 h): 12.1 s
- Plat (6 h): 113.8 x10_4/uL
- RBC (6 h): 639.4 x10_4/ul
- Ret (6 h): 7.7%
- WBC (6 h): 111.3 x10_2/uL
- KIDNEY_L (6 h): 1 g
- KIDNEY_R (6 h): 1 g
- KIDNEY_TOTAL (6 h): 2 g
- LIVER (6 h): 9.9 g
- A/G (6 h): 2.2
- ALP (6 h): 710.4 IU/L
- ALT (6 h): 28.8 IU/L
- AST (6 h): 59.4 IU/L
- BUN (6 h): 11.2 mg/dL
- CRE (6 h): 0.4 mg/dL
- Ca (6 h): 10.5 mg/dL
- Cl (6 h): 103.2 meq/L
- DBIL (6 h): 0.002 mg/dL
- GLC (6 h): 183 mg/dL
- IP (6 h): 9.6 mg/dL
- K (6 h): 5.1 meq/L
- LDH (6 h): 90 IU/L
- Na (6 h): 138.2 meq/L
- PL (6 h): 136.4 mg/dL
- RALB (6 h): 3.8 g/dL
- TBIL (6 h): 0.4 mg/dL
- TC (6 h): 75 mg/dL
- TG (6 h): 75.4 mg/dL
- TP (6 h): 5.6 g/dL
- gamma-GTP (6 h): 1 IU/L
- TERMINAL_BW (9 h): 210.1 g
- APTT (9 h): 15.6 s
- Bas (9 h): 0%
- Eos (9 h): 1%
- Fbg (9 h): 234.6 mg/dL
- Hb (9 h): 13.8 g/dL
- Ht (9 h): 40.9%
- Lym (9 h): 84.2%
- MCH (9 h): 22.1 pg
- MCHC (9 h): 33.8%
- MCV (9 h): 65.5 fL
- Mono (9 h): 6.2%
- Neu (9 h): 8.8%
- PT (9 h): 12.2 s
- Plat (9 h): 113.6 x10_4/uL
- RBC (9 h): 625.2 x10_4/ul
- Ret (9 h): 7.6%
- WBC (9 h): 103.5 x10_2/uL
- KIDNEY_L (9 h): 1 g
- KIDNEY_R (9 h): 1 g
- KIDNEY_TOTAL (9 h): 1.9 g
- LIVER (9 h): 9.3 g
- A/G (9 h): 2.1
- ALP (9 h): 840.2 IU/L
- ALT (9 h): 29.6 IU/L
- AST (9 h): 60 IU/L
- BUN (9 h): 10 mg/dL
- CRE (9 h): 0.5 mg/dL
- Ca (9 h): 10.1 mg/dL
- Cl (9 h): 104.2 meq/L
- DBIL (9 h): 0.008 mg/dL
- GLC (9 h): 194.4 mg/dL
- IP (9 h): 10.5 mg/dL
- K (9 h): 4.8 meq/L
- LDH (9 h): 86.6 IU/L
- Na (9 h): 138.4 meq/L
- PL (9 h): 119.4 mg/dL
- RALB (9 h): 3.8 g/dL
- TBIL (9 h): 0.4 mg/dL
- TC (9 h): 67.8 mg/dL
- TG (9 h): 44 mg/dL
- TP (9 h): 5.7 g/dL
- gamma-GTP (9 h): 1 IU/L
- TERMINAL_BW (24 h): 225.2 g
- APTT (24 h): 16.5 s
- Bas (24 h): 0%
- Eos (24 h): 1.6%
- Fbg (24 h): 229 mg/dL
- Hb (24 h): 13.9 g/dL
- Ht (24 h): 41.3%
- Lym (24 h): 78.2%
- MCH (24 h): 21.8 pg
- MCHC (24 h): 33.7%
- MCV (24 h): 64.8 fL
- Mono (24 h): 7.8%
- Neu (24 h): 13%
- PT (24 h): 12.1 s
- Plat (24 h): 112.8 x10_4/uL
- RBC (24 h): 636.8 x10_4/ul
- Ret (24 h): 7.2%
- WBC (24 h): 103.7 x10_2/uL
- KIDNEY_L (24 h): 1 g
- KIDNEY_R (24 h): 1 g
- KIDNEY_TOTAL (24 h): 2 g
- LIVER (24 h): 11.3 g
- A/G (24 h): 2
- ALP (24 h): 915.4 IU/L
- ALT (24 h): 37 IU/L
- AST (24 h): 62.6 IU/L
- BUN (24 h): 18.6 mg/dL
- CRE (24 h): 0.6 mg/dL
- Ca (24 h): 10.5 mg/dL
- Cl (24 h): 105.2 meq/L
- DBIL (24 h): 0.04 mg/dL
- GLC (24 h): 184.2 mg/dL
- IP (24 h): 7.8 mg/dL
- K (24 h): 5.4 meq/L
- LDH (24 h): 105.4 IU/L
- Na (24 h): 138.4 meq/L
- PL (24 h): 161.2 mg/dL
- RALB (24 h): 4 g/dL
- TBIL (24 h): 0.3 mg/dL
- TC (24 h): 83.2 mg/dL
- TG (24 h): 131 mg/dL
- TP (24 h): 6 g/dL
- gamma-GTP (24 h): 1.4 IU/L
